Measurements published in patent US20250276960A1, “CRYSTALLINE FORMS OF (R)-6-CHLORO-3-((1-(2-CYANO-7-METHYL-3-MORPHOLINOQUINOXALIN-5-YL)ETHYL)AMINO)PICOLINIC ACID” (MIRATI THERAPEUTICS, INC., priority 2024, published 2025).
≈ marks a conversion by molar mass, not a printed value.

What was measured:
[1] = Solubility of amorphous solids of Compound 1 in single solvents at room temperature; assay type: physicochemical
Method: The amorphous solids of Compound 1 as prepared in Example 1 was measured in 20 single solvents at room temperature and crystallization screening was then conducted in the same set of solvents. For each solvent tested, a slurry of the amorphous solids and the solvent was prepared with a […] and the amorphous solids were allowed to dissolve. The slurry was then agitated with a stir bar for approximately 1 hour at room temperature. The wet solids were then analyzed by powder X-ray diffraction (PXRD). The solids were collected and dried under vacuum for 1 day and the crystalline form was confirmed by PXRD. Only one crystalline form was obtained and designated as Form 1.

[2] = tested on: T47D (H1047R mutant) cells; experiment: CellTiter-Glo 2.0 cell viability assay, T47D; assay type: cell-based; conditions: Homo sapiens, 72 hours, CTG
Method: (§1) The ability of a Compound 1 to inhibit the formation of pAKT was measured using alphaLISA Surefire Ultra AKT 1/2/3 (pS473) Assay Kit (#ALSU-PAKT-B50K) was obtained from Perkin Elmer (Waltham, MA). The ability of Compound 1 to decrease the viability of cells was measured using CellTiter-Glo 2.0 (CTG) Luminescent Cell Viability Assay (#G9241) obtained from Promega (Madison, WI).
To prepare assay plates for viability assays, cells were trypsinized, resuspended in fresh media, and viable cells were counted utilizing trypan blue exclusion. […]
Assay day 1, cells were dosed using an Echo Liquid Handler (Beckman Coulter) with compounds at a 10 μm starting concentration and serially diluted (1:4) for a total of 10concentrations. […] After 72 hours of treatment, cell plates were equilibrated to room temperature before adding 15 μl of CTG to each well, plates were then covered in aluminum foil to protect from light, incubated at room temperature for 30 minutes on a microtiter plate shaker, and luminescence readings were collected using a CLARIOstar microplate reader (BMG Labtech, Germany). Percent of vehicle control values were plotted as log (inhibitor) vs. response-Variable slope (four parameters) for curve fitting and IC50 values were determined using XLfit.

[3] = Dynamic vapor sorption (DVS) of crystalline form; assay type: physicochemical; conditions: crystalline form (Form 1)
Method: (§2) The crystalline form of Compound 1 is highly crystalline and has a needle/thin rod-like morphology. FIG. 2A and 2B are polarized light microscopy (PLM) images of this crystalline form of Compound 1. Additionally, the crystalline form of Compound 1 was characterized by PXRD, DSC, TGA, ^1H-NMR, HPLC, and DVS. The solvent used for the ^1H-NMR was methanol.
(§3) The crystalline form has a high melting temperature (˜177-180° C.) with no thermal degradation until >210° C. The crystalline form appears to be an anhydrous form and is non-hygroscopic. The crystalline form was analyzed by PXRD before and after DVS.

[4] = tested on: phospho-AKT (pAKT) in T47D (H1047R) cells; experiment: pAKT alphaLISA Surefire Ultra AKT 1/2/3 (pS473) assay in T47D cells; assay type: cell-based; conditions: Homo sapiens, 24 hr treatment
Method: as §1
To prepare assay plates for pAKT alphaLISA assays, cells were trypsinized, resuspended in fresh media, and viable cells were counted utilizing trypan blue exclusion. Prior to seeding, cells were washed with PBS and resuspended in HBSS (Gibco, #14025092). […]
Immediately after seeding, cells were dosed using an Echo Liquid Handler (Beckman Coulter) with compounds at a 10.4 μm starting concentration and serially diluted (1:4) for a total of 10concentrations. […] Plates were then imaged the following day using a CLARIOstar microplate reader (BMG Labtech, Germany).
Percent of control values were calculated by subtracting the average signal from the positive control (alpelisib) treated wells from all treated wells (including DMSO control wells) and then divided by the average signal from the vehicle DMSO treated control wells. Percent of vehicle control values were plotted as log (inhibitor) vs. response-Variable slope (four parameters) for curve fitting and IC50 values were determined using XLfit.

[5] = Thermal stability (DSC/TGA) of crystalline form; assay type: physicochemical; conditions: crystalline form (Form 1)
Method: as §2, §3

`Cc1cc([C@@H](C)Nc2ccc(Cl)nc2C(=O)O)c2nc(N3CCOCC3)c(C#N)nc2c1` [Compound 1, (R)-6-chloro-3-((1-(2-cyano-7-methyl-3-morpholinoquinoxalin-5-yl)ethyl)amino) picolinic acid] gave a solubility ([1]; organic solvent or mixture, thermodynamic from solid, 1,4-Dioxane) of over 221 mg/mL, a solubility ([1]; organic solvent or mixture, thermodynamic from solid, 2-MeTHF) of over 230 mg/mL and a solubility ([1]; organic solvent or mixture, thermodynamic from solid, ACN) of over 202 mg/mL. For the same molecule, the solubility ([1]; organic solvent or mixture, thermodynamic from solid, DCM) was over 192 mg/mL, the solubility ([1]; organic solvent or mixture, thermodynamic from solid, DMF) was over 216 mg/mL and the solubility ([1]; organic solvent or mixture, thermodynamic from solid, DMSO) was over 241 mg/mL. It also gave a solubility ([1]; organic solvent or mixture, thermodynamic from solid, EtOAc) of over 204 mg/mL, a solubility ([1]; organic solvent or mixture, thermodynamic from solid, EtOH) of 43 to 53.7 mg/mL (≈ 94.9 to 119 mM) and a solubility ([1]; organic solvent or mixture, thermodynamic from solid, IPA) of 14.4 to 16.8 mg/mL (≈ 31.8 to 37.1 mM). It also gave a solubility ([1]; organic solvent or mixture, thermodynamic from solid, IPAc) of over 221 mg/mL, a solubility ([1]; organic solvent or mixture, thermodynamic from solid, MEK) of over 191 mg/mL and a solubility ([1]; organic solvent or mixture, thermodynamic from solid, MIBK) of over 189 mg/mL. It also gave a solubility ([1]; organic solvent or mixture, thermodynamic from solid, MTBE) of 102 to 221 mg/mL (≈ 226 to 488 mM), a solubility ([1]; organic solvent or mixture, thermodynamic from solid, MeOH) of over 210 mg/mL and a solubility ([1]; organic solvent or mixture, thermodynamic from solid, THF) of over 215 mg/mL. It also gave a solubility ([1]; organic solvent or mixture, thermodynamic from solid, acetone) of over 230 mg/mL, a solubility ([1]; organic solvent or mixture, thermodynamic from solid, heptane) of under 1.3 mg/mL and a solubility ([1]; organic solvent or mixture, thermodynamic from solid, nPA) of 47.1 to 58.9 mg/mL (≈ 104 to 130 mM). It also gave a solubility ([1]; organic solvent or mixture, thermodynamic from solid, toluene) of over 204 mg/mL, a solubility ([1]; thermodynamic from solid, water) of under 1.3 mg/mL and an IC50 [2] of 24 nM. For the same molecule, the “Form change by PXRD before and after DVS” value [3] was “no form change”, the “Hygroscopicity (DVS)” value [3] was “non-hygroscopic” and the “DVS weight gain at 80% RH” value ([3]; 80% RH) was 0.11%. The IC50 [4] was 1.8 nM and the “Temperature until which no thermal degradation” value [5] was over 210 °C.
